This is an account of results in ChEMBL document CHEMBL1157734, “Design and synthesis of novel bis-oximinoalkanoic acids as potent PPAR alpha agonists” (Bioorg Med Chem Lett, 2010).

Calls of active or inactive are those of the source. No cut-off for these calls is given here.

Test [1] deals with T1, Peroxisome proliferator-activated receptor delta (Homo sapiens) (UniProt Q03181).
T1 sequence (whole entry): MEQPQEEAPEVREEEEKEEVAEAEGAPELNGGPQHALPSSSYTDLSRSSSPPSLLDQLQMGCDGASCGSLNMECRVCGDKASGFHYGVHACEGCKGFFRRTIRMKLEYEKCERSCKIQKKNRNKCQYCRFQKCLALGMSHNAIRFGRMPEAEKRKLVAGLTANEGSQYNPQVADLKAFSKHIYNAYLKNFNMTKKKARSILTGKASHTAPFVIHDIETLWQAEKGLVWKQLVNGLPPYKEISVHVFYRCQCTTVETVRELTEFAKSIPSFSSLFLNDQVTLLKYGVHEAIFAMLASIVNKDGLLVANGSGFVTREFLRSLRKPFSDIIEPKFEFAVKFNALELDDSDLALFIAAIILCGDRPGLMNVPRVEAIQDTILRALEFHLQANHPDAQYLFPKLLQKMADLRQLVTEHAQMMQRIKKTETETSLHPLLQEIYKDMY
The experiment in a line: Agonist activity at human full length PPARdelta expressed in human HepG2 cells co-transfected with PPRE3-TK-luc assessed as […] at 1 uM by firefly luciferase assay. Format: functional, cell-based.

The test system of test [2] is Mus musculus. Put plainly: Reduction in serum triglyceride level in Swiss albino mouse at 10 mg/kg/day for 6 days relative to control. The test is classed as functional. Also noted: scale not given: the % may be the effect or the level left.
Test [3] has as its target T2, Peroxisome proliferator-activated receptor alpha (Homo sapiens) (UniProt Q07869).
T2 sequence (whole entry): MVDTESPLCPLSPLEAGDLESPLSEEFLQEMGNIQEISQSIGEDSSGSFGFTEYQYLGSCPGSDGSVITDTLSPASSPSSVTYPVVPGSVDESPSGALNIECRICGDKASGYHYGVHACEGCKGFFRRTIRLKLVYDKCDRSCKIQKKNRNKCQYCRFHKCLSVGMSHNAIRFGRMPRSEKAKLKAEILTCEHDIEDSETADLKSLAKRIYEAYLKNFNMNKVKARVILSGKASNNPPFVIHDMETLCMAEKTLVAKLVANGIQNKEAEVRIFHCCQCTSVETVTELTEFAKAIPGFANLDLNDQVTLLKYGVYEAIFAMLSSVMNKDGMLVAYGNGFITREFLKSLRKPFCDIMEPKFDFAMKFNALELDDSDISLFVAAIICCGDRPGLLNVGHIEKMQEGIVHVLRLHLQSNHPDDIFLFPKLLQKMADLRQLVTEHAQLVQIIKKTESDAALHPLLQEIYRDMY
The experiment in a line: Agonist activity at human full length PPARalpha expressed in human HepG2 cells co-transfected with PPRE3-TK-luc assessed as […] by firefly luciferase assay relative to WY-14643. The test is classed as functional, cell-based. On the set-up: concentration or dose not given beside the values.

Test [4] concerns the target T3, Peroxisome proliferator-activated receptor gamma (Homo sapiens, UniProt P37231).
T3 sequence (P37231 whole entry): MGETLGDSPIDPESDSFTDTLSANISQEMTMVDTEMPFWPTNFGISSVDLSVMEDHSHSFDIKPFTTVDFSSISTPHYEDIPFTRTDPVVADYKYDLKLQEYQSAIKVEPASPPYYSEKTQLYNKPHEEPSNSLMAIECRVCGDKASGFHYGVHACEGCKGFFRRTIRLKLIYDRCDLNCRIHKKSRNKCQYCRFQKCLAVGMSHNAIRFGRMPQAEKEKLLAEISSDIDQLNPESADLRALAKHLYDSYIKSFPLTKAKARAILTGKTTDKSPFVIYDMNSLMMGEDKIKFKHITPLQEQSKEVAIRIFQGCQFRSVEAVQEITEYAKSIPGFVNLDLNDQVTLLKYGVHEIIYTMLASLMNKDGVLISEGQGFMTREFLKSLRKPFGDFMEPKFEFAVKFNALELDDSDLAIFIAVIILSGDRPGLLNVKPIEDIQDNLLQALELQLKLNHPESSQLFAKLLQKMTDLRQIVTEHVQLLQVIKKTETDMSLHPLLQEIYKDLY
Put plainly: Agonist activity at human full length PPARgamma expressed in human HepG2 cells co-transfected with PPRE3-TK-luc assessed as […] by firefly luciferase assay. Format: functional, cell-based.

Test [5] deals with T4, Peroxisome proliferator-activated receptor alpha (Homo sapiens, UniProt Q07869).
T4 sequence (Q07869 whole entry): T2 sequence (whole entry)
The experiment in a line: Agonist activity at human full length PPARalpha expressed in human HepG2 cells co-transfected with PPRE3-TK-luc assessed as […] by firefly luciferase assay. The test is classed as functional, cell-based.

The species entered for test [6] is Homo sapiens. Put plainly: Selectivity for human full length PPARalpha over human full length PPARgamma.

Turning to `C/C(=N\OCCCCO/N=C(/CCC(=O)O)c1ccccc1)c1ccc(C)cc1`, the result in test [1] was inactive. For the same compound, the Activity amounted to 13% in test [2] and 78% in test [3]. Further, the EC50 worked out at 2100 nM in test [4] (read-out: EC50) and 50 nM in test [5].
Regarding `C/C(=N\OCCCCO/N=C(/CCC(=O)O)c1ccccc1)c1ccc(C)c(C)c1`, the outcome in test [1] was inactive. The Activity in test [2] worked out at 12%; in test [3], 89%. Besides, in test [6], the Ratio stood at 320. The values for the EC50 in test [4] (read-out: EC50) and in test [5] were 1000 nM and 2 nM, respectively.
Regarding `COc1cc(/C(C)=N/OCCCCO/N=C(/CCC(=O)O)c2ccccc2)ccc1F`, the result in test [1] was inactive. Moreover, the Activity in test [2] came to 19%; in test [3], 122%. In addition, the results for the EC50 in test [4] (read-out: EC50) and in test [5] were 700 nM and 400 nM, respectively.
For `COc1ccc(/C(C)=N/OCCCCO/N=C(/CCC(=O)O)c2ccccc2)cc1OC`, the result in test [1] was inactive. Moreover, the values for the Activity in test [2] and in test [3] were 30% and 136%, respectively. In addition, the EC50 in test [4] (read-out: EC50) is 800 nM; in test [5], 100 nM.
The corresponding values for `COc1cc(/C(C)=N/OCCCCO/N=C(/CCC(=O)O)c2ccccc2)ccc1C` are “inactive”, 36%, 257%, 1600 nM and 5 nM.
The corresponding values for `CCCCc1cccc(/C(C)=N/OCCCCO/N=C(/CCC(=O)O)c2ccccc2)c1` are “inactive”, 31%, 85%, 200 nM and 500 nM.
As for `COc1ccc(/C(C)=N/OCCCCO/N=C(/CCC(=O)O)c2ccccc2)cc1`, in test [1], the outcome was inactive. Moreover, the results for the Activity in test [2] and in test [3] were 35% and 102%, respectively. In test [6], the Ratio is 110. The EC50 came out at 1100 nM in test [4] (read-out: EC50) and 10 nM in test [5].
As to `C/C(=N\OCCCCO/N=C(/CCC(=O)O)c1ccccc1)c1ccc(F)cc1`, in test [1], the outcome was inactive. Moreover, the Activity in test [2] was determined as 18%; in test [3] it was 101%. Further, the EC50 in test [4] (read-out: EC50) turned out to be 1400 nM; in test [5], 50 nM.
For `C/C(=N\OCCCCO/N=C(/CCC(=O)O)c1ccccc1)c1cccc(-c2ccccc2)c1`, in test [1], the outcome was inactive. Further, the Activity in test [2] came to 23%; in test [3], 83%. For the same compound, the EC50 in test [4] (read-out: EC50) amounted to 100 nM; in test [5], 20 nM.
The corresponding values for `C/C(=N\OCCCCO/N=C(/CCC(=O)O)c1ccccc1)c1ccc2c(c1)CCCC2` are “inactive”, 36%, 86%, 200 nM and 3 nM.
The corresponding values for `C/C(=N\OCCCCO/N=C(/CCC(=O)O)c1ccccc1)c1ccc(C(F)(F)F)cc1` are “inactive”, 0.6%, 79%, 1400 nM and 400 nM.
As to `C/C(=N\OCCCCO/N=C(/CCC(=O)O)c1ccccc1)c1ccccc1`, the outcome in test [1] was inactive. In test [3], the Activity is 46%. Moreover, the 50% effective concentration (EC50) result in test [4] (hepg2) is “Not Active”; in test [5], 2300 nM.
Consider `C/C(=N\OCCCCO/N=C(/CCC(=O)O)c1ccccc1)c1ccc(S(C)(=O)=O)cc1`, for which the outcome in test [1] was inactive. For the same compound, the figures for the Activity in test [2] and in test [3] were 14% and 41%, respectively. Also, the concentration for a half-maximal effect (EC50) came to 1900 nM in test [4] (read-out: EC50) and 2400 nM in test [5].
For `Cc1oc(-c2ccccc2)nc1COc1ccc(CO/N=C(\CCC(=O)O)c2ccccc2)cc1` [IMIGLITAZAR], the result in test [1] was inactive. Further, the Activity in test [2] is 37%; in test [3] it was 116%. In addition, in test [5], the 50% effective concentration (EC50) stood at 5 nM.
Take `C/C(=N\OCCCCO/N=C(/CCC(=O)O)c1ccccc1)c1ccc2ccccc2c1`: in test [1], the outcome was inactive. The Activity was found to be 25% in test [2] and 61% in test [3]. Further, the Ratio in test [6] is 6. Besides, the EC50 in test [4] (read-out: EC50) was found to be 200 nM; in test [5], 30 nM.

What is called EC50 is the concentration needed to bring the measured effect to its halfway point.
